# Data published in patent US20250032580A1, “USE OF ADNF POLYPEPTIDES IN THERAPY” (RAMOT AT TEL-AVIV UNIVERSITY LTD., priority 2021, published 2025).
# Entries after “also recorded” stand apart in the source; their conditions may differ.
# Columns and labels:
# BTBR mouse = assay: Social recognition test; assay type: in vivo; conditions: BTBR idiopathic autism mouse, FIG. 14
# [1] = system: SHANK3 mouse model (InsG3680 mutation); assay: Social recognition test; assay type: in vivo; conditions: NAP-treated SHANK3 mouse model
# Experimental: To this end, mice with the ASD-linked InsG3680 mutation were used. Two behavioral assessments were performed on make mice: • 1) Open field behavior attesting to anxiety and depression (Open field behavioral assessment technology was previously described, e.g.); and • 2) Social recognition behavior, related to autistic traits (the social recognition test was previously described, e.g..
# In the social recognition test, the results measured both time exploring and frequency exploring the mouse or cup, either directly or in the chamber where the mouse or cup only are present (FIG. 13).
# [2] = system: adult compromised patients; conditions: cited from earlier work
# [3] = system: differentiated N1E-115 cells; assay: FRAP of mCherry-Tau (Tau-MT interaction); assay type: cell-based, mouse
# Experimental: Cell culture—Mouse neuroblastoma NIE-115 cells were maintained in Dulbecco's modified Eagle's medium, 10% fetal bovine serum, 2 mM glutamine and 100 U ml—1 penicillin, […] ml—1 streptomycin (Biological Industries, Beit Haemek, Israel). The cells were incubated in 95% air/5% CO2 in a humidified incubator at 37° C.
# Cell differentiation and co-transfection of overexpression plasmids—Cultured NIE-115 cells were plated on 35 mm dishes (81156, 60μ-Dish, Ibidi, Martinsried, Germany) at a concentration of 1.25×10^4 cells per dish and then were differentiated with reduced fetal bovine serum (2%) and DMSO (1.25%) containing medium for 5 days before transfection. 48 hrs before experiments N1E-115 cells were co-transfected with 1 μg EB3-RFP or mCherry-Tau (3R) plasmid with or without 2 μg of plasmids, coding to GFP conjugated to full-length human ADNP, or ADNP carried mutations. 1:3 ratios between total amount of transfected DNA and transfection reagent were used according to manufacture guidance (Lipofectamine2000, Thermo Fisher Scientific, Waltham, MA, USA) in all subsequent experiments.
# Fluorescence recovery after photobleaching (FRAP)—Differentiated NIE-115 cells were transfected with mCherry-Tau with or without GFP-conjugated to full-length ADNP or mutated ADNP, and imaged 48 hrs after transfection. An ROI for photobleaching was drowned in the proximal cell branches. mCherry-Tau was bleached with a […], and fluorescence recovery was collected within wavelengths of 610-650 nm. 80 images were taken every 0.74 sec immediately after bleaching. After FRAP imaging all samples were also treated with NAP in final concentrations of 10^−12 M, and after 4 hrs time-lapse imaging was done again under the same conditions. FRAP imaging for assessment difference between NAP and SKIP (SEQ ID NO: 21) activity was performed after an hour of ZnCl2 treatment (400 μM final concentration; Sigma, Rehovot, Israel) with or without NAP/SKIP (10^−12 M final concentration). Fluorescence signals were quantified with Fiji, obtained data were normalized with easyFRAP [82, 83] and FRAP recovery curves were fitted by a one-phase exponential association function by GraphPad Prism6 (GraphPad Software, Inc., La Jolla, CA, USA) while samples with R^2<0.9 were excluded.
# Next, the effect of full-length/truncated ADNP forms with or without NAP treatment on Tau-MT interaction was examined by fluorescence recovery after photobleaching (FRAP) (FIGS. 8A-C). FRAP was performed with mCherry-tagged Tau protein (FIG. 8A). […] Therefore, the immobile mCherry-Tau fraction reflects the rate of Tau association with MTs.
# SHANK3 mice = assay: Grooming (repetitive behavior); assay type: in vivo, mouse; conditions: sham-treated vs NAP-treated SHANK3 mice; data not shown
# Experimental: Repetitive behavior, a key autistic feature, was also evaluated by measuring grooming frequency and duration.
# Tyr-GFP mice = assay: Dendritic spine quantitation; assay type: in vivo, mouse; parameters: key to NAP efficacy: synaptic structural alterations: corrections by NAP treatment (+)
# Experimental: Spine quantitation—For determination of dendritic spine morphology, the Tyr-GFP mouse model was used and generated as described(12). 1.5-2-month-old Tyr-GFP-mice were treated for 9 consecutive days with either intraperitoneal NAP injection (0.4 μg/0.1 ml saline) or with 0.1 ml saline. On day 9, mice were perfused, and brains were subjected to immunohistochemistry and imaging (12).
# Tyr mice [4] = assay: RNA seq of mouse spleens; assay type: in vivo; parameters: key to NAP efficacy: gene expression patterns: corrections by NAP treatment (+)
# Experimental: RNA seq—Total RNA was extracted from 14-week-old mouse spleens and sequenced using standard methods on NextSeq500 system (Illumina) as detailed. Data were analyzed as previously described (9).
# Tyr mice [5] = assay: Ultrasonic vocalizations (USV) and syntax, DeepSqueak; assay type: in vivo, mouse; parameters: key to NAP efficacy: speech impediments: corrections by NAP treatment (+)
# Experimental: USV: On P8, each pup was separated from the dam and placed in an empty cage for 6 minutes, in a quiet room and was recorded using the M500-384 USB Ultrasound Microphone (Petterson, Sweden). Pups were distinguished from one another using the tattoos listed above. After 6 minutes pups were reunited with its dam. Data were analyzed using DeepSqueak. Data were loaded onto DeepSqueak, frequencies between 40-70 kHz were analyzed using the mouse call network V2. Calls were denoised using post hoc denoising network. For syntax analysis, Syntax was classified using Wright K means network. Syntax transition probability charts were generated using DeepSqueak and Matlab. Further USV experiments were performed on P8 pups as previously described (12) with slight modifications.
# Adnp+/− mouse = system: Adnp+/− mouse; parameters: key: corrections by NAP treatment (+); conditions: second symbol of cell, cited from earlier work
# [6] = Tyr mouse, first symbol of cell
# [7] = males and WT females, data not shown
smiles,measurement,setting,value
"CC[C@H](C)[C@H](NC(=O)[C@H](CO)NC(=O)[C@@H](NC(=O)[C@@H]1CCCN1C(=O)[C@H](C)NC(=O)[C@@H](N)CC(N)=O)C(C)C)C(=O)N1CCC[C@H]1C(=O)N[C@@H](CCC(N)=O)C(=O)O [NAP, NAPVSIPQ]",Effects on social recognition (preference of the mouse rather than the cup),BTBR mouse,also observed
same,"Social recognition, mouse vs cup exploration",[1],normalization of behavior
same,Clinical efficacy,[2]; adult patients,enhancement of cognitive function and functional activities of daily living
same,Safety and tolerance,[2]; hundreds of adult compromised patients,proven safety and tolerance
same,Tau-MT interaction (immobile mCherry-Tau fraction),"[3]; cells expressing ADNP p.Glu830synfs*83, 10^−12 M, 4 hrs",significantly increased
same,Tau-MT interaction (Tau immobile fraction),"[3]; cells expressing ADNP p.Lys408Valfs*31 SDM, 10^−12 M, 4 hrs",prevented by NAP treatment
same,Tau-MT interaction (immobile mCherry-Tau fraction),"[3]; cells expressing ADNP p.Ser404*, 10^−12 M, 4 hrs",significantly increased
same,Tau immobile fraction under zinc,"[3]; zinc 400 μM, 1 h, together with peptide 10^−12 M",excessive impact
same,Grooming frequency,SHANK3 mice,higher grooming frequency than did NAP-treated SHANK3 mice
same,NAP efficacy: synaptic structural alterations,Tyr-GFP mice; [6],+/+
same,"Mushroom shaped spine density, motor cortex",Tyr-GFP mice; female Tyr mice,significantly affecting
same,PSD95 volume in the hippocampus,Tyr-GFP mice; female Tyr mice,complete resolution
same,Increase in motor cortex L5 layer spine density,"Tyr-GFP mice; female Tyr mice, i.p. NAP, 9 days",~17%
same,Hippocampal total spines and subtypes,"Tyr-GFP mice; females and WT males, data not shown",no genotype or treatment changes in females or treatment effect on WT males
same,Increase in CA1 hippocampal dendritic spine density,"Tyr-GFP mice; male Tyr mice, i.p. NAP 0.4 μg/0.1 ml saline, 9 days",~23%
same,Motor cortex spine density,Tyr-GFP mice; [7],No genotype or treatment changes were observed in males and no treatment effect was found on WT females
same,Motor cortex spine subtypes,Tyr-GFP mice; [7],No NAP effect
same,Genotype/NAP effect on splenic gene expression,"Tyr mice [4]; Tyr mice, males vs females","very minor genotype/NAP effect on males, and a more comprehensive effect on females"
same,NAP efficacy: gene expression patterns,Tyr mice [4]; [6],+/+
same,"Number of RNA transcripts affected by the Tyr Adnp mutation, corrected by NAP treatment",Tyr mice [4]; female spleens,89
same,"Number of RNA transcripts affected by the Tyr Adnp mutation, corrected by NAP treatment",Tyr mice [4]; male spleens,13
same,Number of syllables vocalized,"Tyr mice [5]; NAP-treated Tyr males, 8 for WT and Tyr",10
same,Syntax complexity,"Tyr mice [5]; P8 Tyr pups, both sexes",powerful corrective effect on both sexes; also recorded: significant improvement with NAP treatment
same,Total USVs produced,"Tyr mice [5]; P8 Tyr pups, females and males",no NAP effects
same,NAP efficacy: speech impediments,"Tyr mice [5]; Tyr mouse (syntax), first symbol of cell",+/+ (syntax)
same,Syntax,"Tyr mice [5]; WT pups, data not shown",minor varied impact
same,"NAP efficacy: cognitive impairments, behavioral deficits",Adnp+/− mouse; Adnp+/− mouse (8),+(odor)/+(8)
same,NAP efficacy: axonal transport,Adnp+/− mouse; Adnp+/− mouse,+/+
same,NAP efficacy: gene expression patterns,Adnp+/− mouse; Adnp+/− mouse,+/+
same,NAP efficacy: global developmental delays,Adnp+/− mouse; Adnp+/− mouse,+/+
same,NAP efficacy: microbiota,Adnp+/− mouse; Adnp+/− mouse,+/+
same,NAP efficacy: motor impediments,Adnp+/− mouse; Adnp+/− mouse,+/(gait)+
same,NAP efficacy: short stature,Adnp+/− mouse; Adnp+/− mouse,+
same,NAP efficacy: speech impediments,Adnp+/− mouse; Adnp+/− mouse,+/+ (syntax)
same,NAP efficacy: synaptic structural alterations,Adnp+/− mouse; Adnp+/− mouse,+/+
same,"NAP efficacy: tauopathy, hyperphosphorylated Tau deposits",Adnp+/− mouse; Adnp+/− mouse,+/+
